Source: patent US12508342B2, “Debridement composition” (priority 2020, dated 2025)

Legend:
[1] = Simulated wound matrix disruption on 96-peg lid, test solutions (Example 1); settings: for % Difference in Efficacy (chelators) / % Difference in Efficacy (surfactants): 1% w/w solution, 37° C., 1 hour, absorbance at 595 nm, with respect to 1% w/w benzethonium chloride aqueous solution; for efficacy relative to benzalkonium chloride, cocoamidopropyl betaine and Poloxamer 188 / efficacy in disrupting the simulated test wound matrix relative to SLS: 1% w/w; for efficacy in disrupting the simulated test wound matrix relative to SLS: compared with SLS
Method: The following examples are prepared and evaluated using a simulated wound matrix composition. A wound matrix is prepared to contain:
The pegs are dipped into the simulated wound matrix and immediately transferred to a calcium chloride bath to achieve cross-linking. Solutions of test materials are prepared at 1% w/w in a 96 well microtiter plate. Following crosslinking, the pegs are inserted into the wells and incubated at 37° C. for 1 hour. Efficacy is characterised by the change in colour of the test solutions resulting from disruption of the stained material and is quantified by reading the absorbance of each solution at 595 nm. Results are presented with respect to a 1% w/w benzethonium chloride aqueous solution.

[2] = AKZO Nobel published values using modified Davies HLB group numbers; cited from earlier work

Row | Compound | % Difference in Efficacy (chelators) [1] | % Difference in Efficacy (surfactants) [1] | HLB Value [2] | further results
1 | O=C(O)CC(O)(CC(=O)O)C(=O)O [Citric Acid] | +50% |  |  | 
2 | O=C([O-])C(=O)[O-].[K+].[K+] [Potassium Oxalate] | +1350% |  |  | 
3 | O=P([O-])(O)O.[Na+] [Sodium Di-hydrogen Phosphate] | −70% |  |  | 
4 | CCCCCCCCCCCCOS(=O)(=O)[O-].[Na+] [Sodium Dodecyl Sulphate, reference compound] |  | −99% | 33.0 | 
5 | CCCCCCCC/C=C\CCCCCCCC(=O)[O-].[Na+] [Sodium Oleate] |  | +996% | 10.55 | efficacy relative to benzalkonium chloride, cocoamidopropyl betaine and Poloxamer 188 [1]: an order of magnitude greater; efficacy in disrupting the simulated test wound matrix relative to SLS [1]: an order of magnitude greater
6 | O=C([O-])CC(O)(CC(=O)[O-])C(=O)[O-].[Na+].[Na+].[Na+] [Tris-odium Citrate] | +1750% |  |  | 
7 | Benzalkonium Chloride [reference compound] |  | +60% |  | 
8 | Cocoamidopropyl betaine |  | +120% |  | 
9 | Di-sodium Lauryl Sulfosuccinate |  | +844% |  | efficacy relative to benzalkonium chloride, cocoamidopropyl betaine and Poloxamer 188 [1]: an order of magnitude greater; efficacy in disrupting the simulated test wound matrix relative to SLS [1]: an order of magnitude greater
10 | Poloxamer 188 [reference compound] |  | −90% | 3.4 | 
11 | Sodium Laureth-2 Sulphate |  | −30% | 15.3 | 
